US5618724A, “Antibiotics GE 37468 A, B and C” (Gruppo Lepetit SpA, priority 1996, dated 1997)

Legend:
[1] = test system: Propionibacterium acnes ATCC 6919; assay: MIC by broth microdilution; format: cell-based; settings: Wilkins-Chalgren broth, 10^5 CFU/ml, 48 h, N2:CO2:H2 (80:10:10)
[2] = test system: Staphylococcus epidermidis ATCC 12228; settings: Iso-Sensitest broth, 10^4 CFU/ml, 20-24 h, 37° C.
[3] = test system: Staphylococcus haemolyticus L602; settings: Iso-Sensitest broth, 10^4 CFU/ml, 20-24 h, 37° C.
[4] = test system: Enterococcus faecalis ATCC 7080; settings: Iso-Sensitest broth, 10^4 CFU/ml, 20-24 h, 37° C.
[5] = test system: Clostridium perfringens L290; settings: Wilkins-Chalgren broth, 10^5 CFU/ml, 48 h, N2:CO2:H2 (80:10:10)
[6] = test system: Staphylococcus aureus Smith; settings: Iso-Sensitest broth, 10^4 CFU/ml, 20-24 h, 37° C.
[7] = test system: Staphylococcus aureus L165; settings: Iso-Sensitest broth, 10^4 CFU/ml, 20-24 h, 37° C.

Cc1oc2nc1C(=O)NC(CC(N)=O)c1nc(cs1)C(=O)NC(Cc1ccccc1)C1=NC(CS1)C(=O)NC(Cc1ccc(O)cc1)C(=O)N1C(O)CC(C)C1c1nc(cs1)-c1nc(cs1)-c1nc(-c3nc(C(N)=O)cs3)ccc1-2 (centres unmarked) [GE37468B]
M.I.C. [1]: 0.016 microgram/ml
M.I.C. [2]: 0.06 microgram/ml
M.I.C. [3]: 0.13 microgram/ml
M.I.C. [4]: 0.03 microgram/ml
M.I.C. [5]: 0.016 microgram/ml
M.I.C. [6]: 0.03 microgram/ml
M.I.C. [7]: 0.03 microgram/ml

C=C(NC(=O)c1csc(-c2ccc3c(n2)-c2csc(n2)-c2csc(n2)C2C(C)CC(O)N2C(=O)C(Cc2ccc(O)cc2)NC(=O)C2CSC(=N2)C(Cc2ccccc2)NC(=O)c2csc(n2)C(CC(N)=O)NC(=O)c2nc-3oc2C)n1)C(N)=O (centres unmarked) [GE37468C]
M.I.C. [1]: 0.616 microgram/ml
M.I.C. [2]: 0.25 microgram/ml
M.I.C. [3]: 0.13 microgram/ml
M.I.C. [4]: 0.03 microgram/ml
M.I.C. [5]: 0.016 microgram/ml
M.I.C. [6]: 0.03 microgram/ml
M.I.C. [7]: 0.03 microgram/ml
